What all share (assay type): cell-based
For one series, the system named is JEV. Briefly: Time of drug addition assay, JEV in BHK-21 cells. The conditions noted are these: JEV MOI 0.1, BHK-21, 10 µM, viral RNA at 24 hpi. The procedure: Considering the mode of action of the compounds 3au and 3aq, they should satisfy this criteria. To evaluate this potential, time of addition experiment was conducted for both compounds to inhibit JEV infection. BHK-21 cells and the virus were pre-treated for 3 h with 10 µM of compounds followed by infection and subsequent incubation in presence of the same (pre + during + post). Alternatively, the compounds (10 µM) were added either during the infection (during + post) or at different times post-infection as indicated (Fig. 9C and D). Virus amplification was measured at 24 hpi by measuring viral RNA accumulation as described above. […] This sustained inhibition indicates a potential therapeutic window for intervention, highlighting the compounds' ability to impede viral replication after initial infection. […] Together, our data not only established the antiviral activity of the compounds against DENV2 and JEV but also pointed out the mechanism of action of these compounds during the specific steps of the virus life cycle.
BHK-21 cells were seeded in a 12-well cell culture plate at a density of (0.5 × 10^6 cells/well). Upon 85%–90% confluency, cells were infected with JEV virus at an MOI of 0.1. Cells were incubated for 1.5 h at 37 °C. […] Cells were harvested at 24 hpi, and the viral genomic RNA levels were quantified using qRT-PCR.

Series [1] can be described thus: MTT cytotoxicity assay in SH-SY5Y cells. The conditions noted are these: human. The procedure:
We further studied the effect of the compounds on JEV replication in the human neuroblastoma SH-SY5Y cells, which represents a suitable model cell line for a neuropathic virus, like JEV. At first, the cytotoxicity was studied for both compounds in SH-SY5Y cells. […] Then, the SH-SY5Y cells were infected with the JEV virus in the absence or presence of 3aq or 3au (10 µM), and viral genomic RNA copies were quantified using qRT-PCR at 24, 48, and 72 hpi, as described previously.
The MTT assay was performed to determine cellular metabolic activity as an indicator of cell viability, proliferation, and cytotoxicity. Thus, to determine whether these compounds had any toxic effects on cellular viability, an MTT assay was performed following the protocol described previously by Mosmann (1983) ([55], [56]). Briefly, BHK-21 and SH-SHY5Y cells were seeded into 96-well plates at a density of 20,000 cells/well. Almost 16–18 h later, the cells were treated with different concentrations of the compounds (3au and 3aq) for 24 h at 37 °C in 5% CO2. […] The absorbance of the solution in a 96-well plate was measured at 595 nm using a microplate reader (Epoch 2; BioTek Instruments). Each experiment was performed in triplicate, and the percentage of cell viability was determined as the ratio of the absorbance values of the experimental samples to the control solvent (DMSO) on the same plate.
(Tetrazolium dyes change colour on reduction, which living cells bring about.)

A further series relates to DENV2. As to the kind of experiment: DENV2 replication in BHK-21 cells, viral RNA by qRT-PCR. The conditions noted are these: for SI, selectivity index (CC50/IC50): DENV2, BHK-21 cells, qRT-PCR IC50; for IC50: Dengue virus, DENV2, BHK-21, read-out: IC50, reduction of DENV2 viral RNA. The procedure:
First, cytotoxic impact of these compounds was evaluated using MTT assay. […] Subsequently, we evaluated the effectiveness of these compounds in inhibiting DENV2 replication. BHK-21 cells were infected with the virus in presence of increasing concentration of these compounds, and harvested at 24 hpi. The virus replication rate was assessed by quantifying the copy number of viral genomic RNA using quantitative real-time PCR (qRT-PCR).
BHK-21 cells were seeded in a 24-well cell culture plate at a density of (0.25 × 10^6 cells/well) with regular growth medium containing DMEM + 10% FBS 1 day prior to infection in triplicate. Once the cells reached 85%–90% confluence, they were infected with DENV2 and JEV virus inoculum comprising DMEM + 2% FBS and 10 µM of the compound at an MOI of 0.1. Cells were incubated for 1.5 h at 37 °C with the virus-compound inoculum, with gentle rocking every 10 min to ensure even coverage and prevent the cellular monolayer from drying. Finally, the inoculum was replenished with fresh culture media comprising DMEM + 2% FBS and the compound, and then kept in an incubator in a humidified chamber at 37 °C until harvest (18 h). The cell culture supernatant was aspirated and washed with PBS, and the cellular monolayer was used for viral RNA isolation.
Total cellular RNA was extracted from BHK-21 cells using TRIzol reagent, according to the manufacturer’s instructions (Ambion Life Technologies, USA). RNA quantity and integrity were determined prior to use on a NanoDrop spectrophotometer (Thermo Fisher Scientific). Then, 1 µg of total RNA from each experimental sample was used to synthesize cDNA by reverse transcriptase (RT) by incubating the RNAs with Moloney murine leukemia virus (M-MuLV) RT, with specific RT primer, 5′-[…]-3′ (Tm = 63 °C), and deoxynucleoside triphosphates (dNTPs) (New England Biolabs) at 42 °C for 50 min, followed by inactivation at 70 °C for 15 min.
To quantify the viral RNA copy number, quantitative RT-PCR (qRT-PCR) was performed in duplicate using iTaq Universal SYBR Green Supermix (Bio-Rad). The cDNAs used for qPCR analysis were prepared using Power SYBR Green PCR Master Mix (Bio-Rad, #172–5125) in a QuantStudio5 Applied Biosystems real-time PCR system. For qPCR amplification of the JEV amplicon size of 202 bp, the sequences of the forward and reverse primer pairs used were 5′-[…]-3′ (Tm = 65 °C) and 5′-[…]-3′ (Tm = 63 °C) and for DENV amplicon of 163 bp, the sequences of the forward and reverse primer pair used were 5′-[…]-3′ (Tm = 61 °C) and 5′-[…]-3′ (Tm = 59 °C). […] Delta Ct for both control and compound-treated samples was determined and subsequently analyzed by determining the delta Ct to determine the mRNA expression of target genes in control vs treated samples.

These results are taken from paper PMC11963559, “Identification of novel thiazole derivatives as flaviviral protease inhibitors effective against Dengue (DENV2) and Japanese encephalitis viruses” (Antimicrobial Agents and Chemotherapy, 2025).

Structures are written as SMILES.

As usually defined, the CC50 is the concentration at which the toxic effect on the cells reaches its halfway point. The low end stands for harm at low concentration, the high end for better tolerance by the cells. Broadly, the IC50 is the concentration that inhibits the measured activity by half. `COc1ccc(-c2csc(N/N=C(\C)c3cc(O)cc(O)c3)n2)cc1` [3au]: the “inhibition of viral replication by time of addition” value in the series on JEV is given as “significantly inhibited viral replication even when added at 9 hpi”. The compound also had a CC50 at 24 h in series [1] of 49.4 ± 3.65 µM. Also, in the series with DENV2, the “SI, selectivity index (CC50/IC50)” value stood at 10.38 and the IC50 is 7.38 ± 0.6 µM.
Consider `COc1ccc(-c2csc(N/N=C(\C)c3ccc(O)cc3)n2)cc1` [3aq], for which the “inhibition of viral replication by time of addition” value with JEV is “significantly inhibited viral replication even when added at 9 hpi”. The compound further showed a CC50 at 24 h in series [1] of 58.3 ± 4.31 µM. For the same compound, in the series on DENV2, the “SI, selectivity index (CC50/IC50)” value was 18.35 and the IC50 was 4.47 ± 0.41 µM.
